By EC50 is commonly meant the midpoint of the concentration-response curve. The term Emax denotes the maximal effect, on the per cent scale that the assay sets.

Data on eight compounds can be found in patent US10208019B2, “GLP-1 receptor agonists and uses thereof” (Pfizer Inc., priority 2016, dated 2019).

The target of experiment [1] is human GLP-1R (Homo sapiens, UniProt P43220, G168S). Kind of experiment: CHO GLP-1R Clone H6—Assay 1: HTRF cAMP cell-based functional agonist assay (high GLP-1R density). Particulars: for EC50: read-out: Assay 1 EC50, CHO GLP-1R Clone H6, cAMP HTRF, geometric mean; for Emax: read-out: Assay 1 Emax (%), CHO GLP-1R Clone H6, relative to saturating concentration of full agonist GLP-1 (1 μM), arithmetic mean.

For experiment [2], the target named is human GLP-1R (Homo sapiens (Human), UniProt P43220, L260F). Briefly: CHO GLP-1R Clone C6—Assay 2: HTRF cAMP cell-based functional agonist assay (low GLP-1R density). Particulars: for EC50: CHO GLP-1R Clone C6, cAMP HTRF, geometric mean; for Emax: CHO GLP-1R Clone C6, relative to saturating concentration of full agonist GLP-1 (1 μM), arithmetic mean, read-out: Assay 2 Emax (%).
human GLP-1R (Homo sapiens (Human), UniProt P43220, L260F), sequence (P43220 24-463 L260F): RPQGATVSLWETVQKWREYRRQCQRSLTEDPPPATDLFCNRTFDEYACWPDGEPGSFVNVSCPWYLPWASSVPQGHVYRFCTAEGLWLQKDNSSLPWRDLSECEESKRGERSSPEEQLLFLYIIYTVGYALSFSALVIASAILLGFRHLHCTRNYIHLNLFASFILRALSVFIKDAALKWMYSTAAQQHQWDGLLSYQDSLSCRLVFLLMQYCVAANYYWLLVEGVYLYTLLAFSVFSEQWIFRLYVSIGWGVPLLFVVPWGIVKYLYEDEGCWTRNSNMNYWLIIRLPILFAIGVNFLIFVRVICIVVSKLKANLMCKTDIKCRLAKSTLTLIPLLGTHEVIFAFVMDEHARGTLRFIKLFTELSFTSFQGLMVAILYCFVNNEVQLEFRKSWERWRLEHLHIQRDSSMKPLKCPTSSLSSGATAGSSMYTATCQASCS

human GLP-1R (Homo sapiens, UniProt P43220, G168S), sequence (P43220 24-463 G168S limits assumed): as the sequence (P43220 24-463 L260F) above, with G145S, F237L counted along it

For the compound `O=C(O)c1ccc2nc(CN3CCC(c4cccc(OCc5ccc(Cl)cc5F)n4)CC3)n(C3CCOC3)c2c1` (centres unmarked) [Example 11A-26, 2-[(4-{6-[(4-chloro-2-fluorobenzyl)oxy]pyridin-2-yl}piperidin-1-yl)methyl]-1-(tetrahydrofuran-3-yl)-1H-benzimidazole-6-carboxylic acid], the EC50 at human GLP-1R [1] came to 0.036 µM; on human GLP-1R [2], 1.1 µM. Besides, the Emax on human GLP-1R [1] was 73%; at human GLP-1R [2], 79%.
In the same order, the values of `CC(F)(F)Cn1c(CN2CCC(c3cccc(OCc4ccc(Cl)cc4F)n3)CC2)nc2ccc(C(=O)O)cc21` [Example 11A-27, 2-[(4-{6-[(4-chloro-2-fluorobenzyl)oxy]pyridin-2-yl}piperidin-1-yl)methyl]-1-(2,2-difluoropropyl)-1H-benzimidazole-6-carboxylic acid] are 0.044 µM, 0.49 µM, 72% and 98%.
On to `O=C(O)c1ccc2nc(CN3CCC(c4cccc(OCc5ccc(Cl)cc5F)n4)CC3)n(CCn3cccn3)c2c1` [Example 11A-28, 2-[(4-{6-[(4-chloro-2-fluorobenzyl)oxy]pyridin-2-yl}piperidin-1-yl)methyl]-1-[2-(1H-pyrazol-1-yl)ethyl]-1H-benzimidazole-6-carboxylic acid], for which, on human GLP-1R [1], the EC50 was found to be 0.054 µM and the Emax is 77%. Also, at human GLP-1R [2], the EC50 came to 1.2 µM and the Emax is 82%.
In the same order, the values of `Cc1noc(CCn2c(CN3CCC(c4cccc(OCc5ccc(Cl)cc5F)n4)CC3)nc3ccc(C(=O)O)cc32)n1` [Example 11A-29, 2-[(4-{6-[(4-chloro-2-fluorobenzyl)oxy]pyridin-2-yl}piperidin-1-yl)methyl]-1-[2-(3-methyl-1,2,4-oxadiazol-5-yl)ethyl]-1H-benzim idazole-6-carboxylic acid] are 0.055 µM, 71%, 1.7 µM and 99%.
In the same order, the values of `Cc1ccn(CCn2c(CN3CCC(c4cccc(OCc5ccc(Cl)cc5F)n4)CC3)nc3ccc(C(=O)O)cc32)n1` [Example 11A-31, 2-[(4-{6-[(4-chloro-2-fluorobenzyl)oxy]pyridin-2-yl}piperidin-1-yl)methyl]-1-[2-(3-methyl-1H-pyrazol-1-yl)ethyl]-1H-benzimidazole-6-carboxylic acid] are 0.072 µM, 76%, 1.5 µM and 81%.
The matching figures for `Cn1ncnc1Cn1c(CN2CCC(c3cccc(OCc4ccc(Cl)cc4F)n3)CC2)nc2ccc(C(=O)O)cc21` [Example 11A-33, 2-[(4-{6-[(4-chloro-2-fluorobenzyl)oxy]pyridin-2-yl}piperidin-1-yl)methyl]-1-[(1-methyl-1H-1,2,4-triazol-5yl)methyl]-1H-benzimidazole-6-carboxylic acid]: 0.096 µM, 86%, 1.4 µM and 94%.
As for `CN1CCC[C@@H]1Cn1c(CN2CCC(c3cccc(OCc4ccc(Cl)cc4F)n3)CC2)nc2ccc(C(=O)O)cc21` [Example 11A-34, 2-[(4-{6-[(4-chloro-2-fluorobenzyl)oxy]pyridin-2-yl}piperidin-1-yl)methyl]-1-{[(2R)-1-methylpyrrolidin-2-yl]methyl}-1H-benzimidazole-6-carboxylic acid], the EC50 at human GLP-1R [1] was 0.11 µM; on human GLP-1R [2], 3.5 µM. Further, the Emax was 70% on human GLP-1R [1] and 95% at human GLP-1R [2].
Consider `O=C(O)c1ccc2nc(CN3CCC(c4cccc(OCc5ccc(Cl)cc5F)n4)CC3)n(C[C@H]3CCCO3)c2c1` [Example 11A-68, 2-[(4-{6-[(4-chloro-2-fluorobenzyl)oxy]pyridin-2-yl}piperidin-1-yl)methyl]-1-[(2R)-tetrahydrofuran-2-ylmethyl]-1H-benzimidazole-6-carboxylic acid], for which the EC50 turned out to be 0.063 µM at human GLP-1R [1] and 2 µM at human GLP-1R [2]. The maximal response (Emax) on human GLP-1R [1] worked out at 78%; on human GLP-1R [2], 82%.
